Results taken from EP3365068B1, “COSMETIC COMPOSITIONS FOR SKIN WHITENING” (Lumene Oy, priority 2015, dated 2017).

Assays:
[1] = test system: normal human epidermal melanocytes (NHEM); experiment: Melanin synthesis under stimulated condition (L-tyrosine-induced, OD at 405 nm); type: cell-based; conditions: tested at 5 µg/ml, L-tyrosine 1 mM, 10 days
Protocol: More specifically, the effect of the compound was evaluated on the following parameters: • 1. […] Melanin synthesis in NHEM stimulated by […]. • 3. […] For the tyrosinase activity assay the following concentrations were tested: 0.33, 1, 3, 9, 27 and 81 mg/ml (the spray-dried cloudberry powder was dissolved in assay buffer). For the melanin synthesis and melanocyte dendricity assay the following concentrations were tested: 0.33, 1 and 3 mg/ml (the spray-dried cloudberry powder was dissolved in culture medium). Melanocytes were seeded in 24-well plates and cultured in their culture medium for 24 hours. The medium was then replaced by culture medium containing or not (stimulated control) the inducer (L-Tyrosine) and the test compound of the reference (lipoic acid at 5 µg/ml). […] In parallel, a non-stimulated control was performed. Each experimental condition was performed in n=3. At the end of incubation, melanin was extracted by cell lysis using a 0.5 N NaOH solution. The optical density (OD) of each experimental point was measured at 405 nm and melanin quantity was calculated using melanin standards. Results were expressed in µg/ml of melanin and in percentage of inhibition compared to control.

[2] = test system: co-culture of NHEM and normal human epidermal keratinocytes (NHEK); experiment: Melanocyte dendricity under stimulated condition (IBMX, immunofluorescent labeling and image analysis); type: cell-based; conditions: tested at 0.025 µg/ml, IBMX 200 µM, 72 hours, read-out: % of inhibition of the formation of dendrites by the melanocytes
Protocol: Two further assays were carried out to evaluate the whitening effect of the powder, i.e. melanin synthesis in NHEM stimulated by […] and melanocyte dendricity in a co-culture of NHEM and normal human epidermal keratinocytes (NHEK) in presence of IBMX (a melanocyte dendricity stimulating agent) using in situ immunofluorescent labeling and image analysis. As reference substances in these tests lipoic acid and vincristine, respectively, were used.
More specifically, the effect of the compound was evaluated on the following parameters: • 1. Activity of tyrosinase enzyme extracted from NHEM (acellular assay). • 2. Melanin synthesis in NHEM stimulated by […]. • 3. Melanocyte dendricity in a co-culture of NHEM and normal human epidermal keratinocytes (NHEK) in presence of IBMX (a melanocyte dendricity stimulating agent) using in situ immunofluorescent labeling and image analysis.
For the tyrosinase activity assay the following concentrations were tested: 0.33, 1, 3, 9, 27 and 81 mg/ml (the spray-dried cloudberry powder was dissolved in assay buffer). […]
Images were acquired of the wells (10 photos per well). The labeling was quantified by the measurement of the dendrite fluorescence area normalized to the total number of melanocytes.

Row | SMILES | % of inhibition of L-tyrosine-induced melanin synthesis [1] | inhibition at 0.025 µg/mL [2]
1 | O=C(O)CCCC[C@@H]1CCSS1 (racemic) [lipoic acid] | 108% | –
2 | CC[C@]1(O)C[C@H]2CN(CCc3c([nH]c4ccccc34)[C@@](C(=O)OC)(c3cc4c(cc3OC)N(C=O)[C@H]3[C@@](O)(C(=O)OC)[C@H](OC(C)=O)[C@]5(CC)C=CCN6CC[C@]43[C@@H]65)C2)C1 [vincristine] | – | 175%
